The text below walks through data of patent US11000033B2, “Ketone or oxime compound, and herbicide” (NISSAN CHEMICAL CORPORATION, priority 2014, dated 2021).

Structures are written as SMILES.

Common to all, as to assay type: in vivo
Data set [1] deals with rapeseed. Kind of data set: Test Example 5: effect on crop by foliage application, plastic box (symbol g). As to conditions: 320 g/ha, 3 weeks after application. The procedure, abridged:
(§1)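 Plants were raised from seed in a greenhouse (25° C. to 30° C.) after sowing in a plastic box of sterilized diluvial soil.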

Data set [2] relates to Echinochloa oryzacola Vasing. Kind of data set: Test Example 2: herbicidal activity, application during weed generation in submerged conditions (symbol A). To be noted: Table 23; application herbicide amount 320 g/ha; grade 0-5 by criteria of Test Example 1. Summed up: (§2)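 Treatment timing was the one- to two-leaf stage, with diluted emulsifiable compound dropped onto the paddy water (depth 4 cm) over alluvial soil. All three species grew from a mixed sowing in a 25° C. to 30° C. greenhouse. Injury was judged by eye 3 weeks on.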

Data set [3] relates to rice plant. Kind of data set: Test Example 5: effect on crop by foliage application, plastic box (symbol b). As to conditions: 320 g/ha, 3 weeks after application. Summed up:
as §1

Data set [4] has as its system Chenopodium album. Kind of data set: Test Example 5: herbicidal effect by foliage application, plastic box (symbol O). As to conditions: 320 g/ha, 3 weeks after application. The procedure, abridged:
(§3)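 Post-emergence spray; diluvial soil (sterilized), ~1.5 cm seed cover; greenhouse 25–30° C; 14-day-old plants; water-diluted emulsion at predetermined dose; visual score at 3 wk post-treatment.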

The subject of data set [5] is Digitaria ciliaris. Kind of data set: Test Example 5: herbicidal effect by foliage application, plastic box (symbol F). To be noted: 320 g/ha, 3 weeks after application. Summed up: as §3
Data set [6] deals with Avena fatua. Kind of data set: Test Example 4: herbicidal effect by soil treatment (symbol I). As to conditions: for I: Avena fatua, herbicidal effect grade: 320 g/ha. Summed up:
(§4)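 Seeds were sown in sterilized diluvial soil, covered with about 1.5 cm of soil, and the soil surface was sprayed with a water-diluted emulsion of the compound at a predetermined rate. Plants grew in a greenhouse at 25° C. to 30° C.; effects were scored visually 3 weeks after application.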

Data set [7] concerns Scirpus juncoides. Kind of data set: Test Example 2: herbicidal activity, application during weed generation in submerged conditions (symbol B). As to conditions: Table 23; application herbicide amount 320 g/ha; grade 0-5 by criteria of Test Example 1. The procedure, abridged: as §2
Data set [8] deals with Echinochloa crus-galli var. crus-galli. As to the kind of experiment: Test Example 3: herbicidal effect by foliage application, Wagner pot (symbol H). As to conditions: application herbicide amount 320 g/ha. The procedure, abridged:
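The compound, formulated as an emulsion and diluted with water to a predetermined rate, is applied uniformly to leaves of two-week-old seedlings growing in submerged alluvial soil at 25–30 °C. Rice is included. Each plant is assessed 3 weeks later using defined criteria.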

The test system of data set [9] is Chenopodium album. As to the kind of experiment: Test Example 4: herbicidal effect by soil treatment (symbol O). To be noted: for O: Chenopodium album, herbicidal effect grade: 320 g/ha. The procedure, abridged: as §4
The subject of data set [10] is Scirpus juncoides. Kind of data set: Test Example 1: herbicidal activity, application before weed generation in submerged conditions (symbol B). To be noted: application herbicide amount 320 g/ha. Summed up: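 Application before weed emergence: an aqueous dilution of the emulsion formulation was poured onto the surface of 4 cm-deep floodwater on the day of sowing. Effect was judged after 3 weeks (greenhouse, 25–30 °C).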

The test system of data set [11] is Stellaria media. Kind of data set: Test Example 4: herbicidal effect by soil treatment (symbol P). As to conditions: for P: Stellaria media, herbicidal effect grade: 320 g/ha. Summed up:
as §4

For data set [12], the system named is beet. Kind of data set: Test Example 4: effect on crop by soil treatment (symbol f). To be noted: for f: beet, effect grade on crop: 320 g/ha. Summed up: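 Sterilized diluvial soil, spot sowing, ~1.5 cm soil cover; greenhouse 25–30° C.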
[13] abbreviates: application herbicide amount 320 g/ha.

Regarding `COC(=O)c1ccc(CON=C(C)CC2CC(O)=C(c3c(C)cc(C)cc3C)C2=O)cc1` (stereo not drawn) [1-118], the “g: rapeseed, effect on crop (criteria 0-5)” value (“g: rapeseed … (criteria 0-5)” below) in data set [1] is 4 (Herbicidal ratio of 70% or higher and lower than 90%). Also, the “Herbicidal effect grade, A: Echinochloa oryzacola Vasing.” value in data set [2] was 2 (Herbicidal ratio of 20% or higher and lower than 40%). Also, the “b: directly sowed rice plant, effect on crop (criteria 0-5)” value in data set [3] is 4 (Herbicidal ratio of 70% or higher and lower than 90%). Also, in data set [4], the “O: Chenopodium album, herbicidal effect (criteria 0-5)” value (from here on “O: Chenopodium album … (criteria 0-5)”) was 3 (Herbicidal ratio of 40% or higher and lower than 70%). In addition, in [5], the “F: Digitaria ciliaris, herbicidal effect (criteria 0-5)” value (“F: Digitaria ciliaris … (criteria 0-5)” below) is 0 (Herbicidal ratio of 5% or lower (almost no effect)). The “I: Avena fatua, herbicidal effect grade” value in [6] was 0 (Herbicidal ratio of 5% or lower (almost no effect)). Also, the “Herbicidal effect grade, B: Scirpus juncoides” value (“Herbicidal effect grade, B” below) in [7] was 0 (Herbicidal ratio of 5% or lower (almost no effect)); in data set [10] it was 1 (Herbicidal ratio of 5% or higher and lower than 20%). Besides, the “herbicidal effect on H (Echinochloa crus-galli var. crus-galli), grade 0-5” value (“herbicidal effect on H” below) in data set [8] was 4 (Herbicidal ratio of 70% or higher and lower than 90%). The “O: Chenopodium album, herbicidal effect grade” value in data set [9] is 0 (Herbicidal ratio of 5% or lower (almost no effect)). Moreover, the “P: Stellaria media, herbicidal effect grade” value in data set [11] is on record as 0 (Herbicidal ratio of 5% or lower (almost no effect)). Besides, the “f: beet, effect grade on crop” value in data set [12] is listed as 0 (Herbicidal ratio of 5% or lower (almost no effect)).

Regarding `CC(CC1CC(O)=C(c2c(C)cc(C)cc2C)C1=O)=NOCc1cccc(C(F)(F)F)c1` (stereo not drawn) [1-117], in data set [1], the “g: rapeseed … (criteria 0-5)” value is on record as 5 (Herbicidal ratio of 90% or more (almost completely withered)). In [2], the “Herbicidal effect grade, A: Echinochloa oryzacola Vasing.” value is 4 (Herbicidal ratio of 70% or higher and lower than 90%). In data set [3], the “b: directly sowed rice plant, effect on crop (criteria 0-5)” value is 5 (Herbicidal ratio of 90% or more (almost completely withered)). Besides, the “O: Chenopodium album … (criteria 0-5)” value in [4] is reported as 0 (Herbicidal ratio of 5% or lower (almost no effect)). Also, the “F: Digitaria ciliaris … (criteria 0-5)” value in [5] is given as 5 (Herbicidal ratio of 90% or more (almost completely withered)). Besides, in [6], the “I: Avena fatua, herbicidal effect grade” value was 0 (Herbicidal ratio of 5% or lower (almost no effect)). Further, the “Herbicidal effect grade, B” value in data set [7] is 3 (Herbicidal ratio of 40% or higher and lower than 70%); in data set [10], 5 (Herbicidal ratio of 90% or more (almost completely withered)). Also, in [8], the “herbicidal effect on H” value is recorded as 5 (Herbicidal ratio of 90% or more (almost completely withered)). The “O: Chenopodium album, herbicidal effect grade” value in [9] is 0 (Herbicidal ratio of 5% or lower (almost no effect)). Also, the “P: Stellaria media, herbicidal effect grade” value in [11] is recorded as 0 (Herbicidal ratio of 5% or lower (almost no effect)). In [12], the “f: beet, effect grade on crop” value is recorded as 0 (Herbicidal ratio of 5% or lower (almost no effect)).

On to `CC(CC1CC(O)=C(c2c(C)cc(C)cc2C)C1=O)=NOCC(C)Cl` (stereo not drawn) [1-121], for which the “g: rapeseed … (criteria 0-5)” value in data set [1] is listed as 5 (Herbicidal ratio of 90% or more (almost completely withered)). For the same compound, the “Herbicidal effect grade, A: Echinochloa oryzacola Vasing.” value in data set [2] is given as 5 (Herbicidal ratio of 90% or more (almost completely withered)). Also, the “b: directly sowed rice plant, effect on crop (criteria 0-5)” value in data set [3] is reported as 5 (Herbicidal ratio of 90% or more (almost completely withered)). Besides, in data set [4], the “O: Chenopodium album … (criteria 0-5)” value was 3 (Herbicidal ratio of 40% or higher and lower than 70%). Also, the “F: Digitaria ciliaris … (criteria 0-5)” value in [5] is on record as 5 (Herbicidal ratio of 90% or more (almost completely withered)). The “I: Avena fatua, herbicidal effect grade” value in [6] was 1 (Herbicidal ratio of 5% or higher and lower than 20%). In addition, the “Herbicidal effect grade, B” value in [7] is 4 (Herbicidal ratio of 70% or higher and lower than 90%); in [10], 5 (Herbicidal ratio of 90% or more (almost completely withered)). Further, in data set [8], the “herbicidal effect on H” value is recorded as 5 (Herbicidal ratio of 90% or more (almost completely withered)). Besides, the “O: Chenopodium album, herbicidal effect grade” value in data set [9] is 0 (Herbicidal ratio of 5% or lower (almost no effect)). Moreover, the “P: Stellaria media, herbicidal effect grade” value in [11] was 0 (Herbicidal ratio of 5% or lower (almost no effect)). In addition, the “f: beet, effect grade on crop” value in data set [12] was 0 (Herbicidal ratio of 5% or lower (almost no effect)).

Consider `CC(CC1CC(O)=C(c2c(C)cc(C)cc2C)C1=O)=NOCc1ccccc1C(F)(F)F` (stereo not drawn) [1-116], for which the “g: rapeseed … (criteria 0-5)” value in data set [1] is recorded as 5 (Herbicidal ratio of 90% or more (almost completely withered)). The “Herbicidal effect grade, A: Echinochloa oryzacola Vasing.” value in data set [2] was 2 (Herbicidal ratio of 20% or higher and lower than 40%). For the same compound, in [3], the “b: directly sowed rice plant, effect on crop (criteria 0-5)” value was 4 (Herbicidal ratio of 70% or higher and lower than 90%). Moreover, the “O: Chenopodium album … (criteria 0-5)” value in data set [4] is 3 (Herbicidal ratio of 40% or higher and lower than 70%). Moreover, the “F: Digitaria ciliaris … (criteria 0-5)” value in data set [5] is reported as 5 (Herbicidal ratio of 90% or more (almost completely withered)). In addition, the “I: Avena fatua, herbicidal effect grade” value in [6] is 3 (Herbicidal ratio of 40% or higher and lower than 70%). The “Herbicidal effect grade, B” value in data set [7] was 3 (Herbicidal ratio of 40% or higher and lower than 70%); in data set [10], 4 (Herbicidal ratio of 70% or higher and lower than 90%). Also, in [8], the “herbicidal effect on H” value is on record as 5 (Herbicidal ratio of 90% or more (almost completely withered)). For the same compound, the “O: Chenopodium album, herbicidal effect grade” value in [9] is 0 (Herbicidal ratio of 5% or lower (almost no effect)). Further, the “P: Stellaria media, herbicidal effect grade” value in data set [11] is on record as 0 (Herbicidal ratio of 5% or lower (almost no effect)). Also, the “f: beet, effect grade on crop” value in data set [12] is given as 0 (Herbicidal ratio of 5% or lower (almost no effect)).

Take `Cc1cc(Br)cc(C)c1C1=C(O)CC(CC(=O)C(C)C)C1=O` (racemic) [10-003]: the “g: rapeseed, effect on crop grade” value in data set [1] is 0 (Herbicidal ratio of 5% or lower (almost no effect)). For the same compound, in data set [2], the “Herbicidal effect grade, A: Echinochloa oryzacola Vasing.” value was 3 (Herbicidal ratio of 40% or higher and lower than 70%). For the same compound, the “b: directly sowed rice plant, effect on crop grade” value in [3] was 4 (Herbicidal ratio of 70% or higher and lower than 90%). For the same compound, the “O: Chenopodium album, herbicidal effect grade” value in data set [4] is given as 0 (Herbicidal ratio of 5% or lower (almost no effect)). In addition, in [5], the “F: Digitaria ciliaris, herbicidal effect grade” value was 3 (Herbicidal ratio of 40% or higher and lower than 70%). Also, the “Herbicidal effect grade, I: Avena fatua” value in data set [6] (setting [13]) is given as 0 (Herbicidal ratio of 5% or lower (almost no effect)). In data set [7], the “Herbicidal effect grade, B” value was 0 (Herbicidal ratio of 5% or lower (almost no effect)). The “H (Echinochloa crus-galli var. crus-galli) herbicidal effect grade” value in [8] (Table 24) is 5 (Herbicidal ratio of 90% or more (almost completely withered)). The “Herbicidal effect grade, O: Chenopodium album” value in data set [9] (setting [13]) is on record as 0 (Herbicidal ratio of 5% or lower (almost no effect)). For the same compound, in [10], the “B (Scirpus juncoides) herbicidal effect grade” value was 0 (Herbicidal ratio of 5% or lower (almost no effect)). The “Herbicidal effect grade, P: Stellaria media” value in [11] (setting [13]) is given as 0 (Herbicidal ratio of 5% or lower (almost no effect)). Besides, the “Effect on crop grade, f: beet” value in data set [12] (setting [13]) is given as 0 (Herbicidal ratio of 5% or lower (almost no effect)).

Turning to `CCC(Oc1ccc2ncc(Br)cc2c1)C(=O)OC1=C(c2c(C)cc(C)cc2C)C(=O)C(CC(C)=NOC)C1` (stereo not drawn) [1-140], in data set [1], the “g: rapeseed … (criteria 0-5)” value is listed as 5 (Herbicidal ratio of 90% or more (almost completely withered)). Also, in data set [2], the “Herbicidal effect grade, A: Echinochloa oryzacola Vasing.” value is on record as 5 (Herbicidal ratio of 90% or more (almost completely withered)). Moreover, the “b: directly sowed rice plant, effect on crop (criteria 0-5)” value in data set [3] was 5 (Herbicidal ratio of 90% or more (almost completely withered)). Moreover, in data set [4], the “O: Chenopodium album … (criteria 0-5)” value is 2 (Herbicidal ratio of 20% or higher and lower than 40%). The “F: Digitaria ciliaris … (criteria 0-5)” value in [5] is 5 (Herbicidal ratio of 90% or more (almost completely withered)). Further, the “I: Avena fatua, herbicidal effect grade” value in [6] is 4 (Herbicidal ratio of 70% or higher and lower than 90%). Further, the “Herbicidal effect grade, B” value in data set [7] and in data set [10] was 5 (Herbicidal ratio of 90% or more (almost completely withered)) each time. Moreover, the “herbicidal effect on H” value in data set [8] is recorded as 5 (Herbicidal ratio of 90% or more (almost completely withered)). Further, the “O: Chenopodium album, herbicidal effect grade” value in data set [9] is reported as 0 (Herbicidal ratio of 5% or lower (almost no effect)). Moreover, the “P: Stellaria media, herbicidal effect grade” value in data set [11] is 0 (Herbicidal ratio of 5% or lower (almost no effect)). For the same compound, the “f: beet, effect grade on crop” value in data set [12] was 0 (Herbicidal ratio of 5% or lower (almost no effect)).
